Source: US20240381760A1, “Compound, Semiconductor Layer Comprising Compound and Organic Electronic Device” (Novaled GmbH, priority 2021, published 2024)

Experiments:
Assay type in all cases: physicochemical
[1] = Decomposition temperature Tdec by TGA-DSC; settings: onset of decomposition in TGA, 10 K/min, nitrogen
Experimental: The decomposition temperature Tdec is measured by loading a sample of 9 to 11 mg into a Mettler Toledo 100 μL aluminum pan without lid under nitrogen in a Mettler Toledo TGA-DSC 1 machine. The following heating program was used: 25° C. isothermal for 3 min; 25° C. to 600° C. with 10 K/min. The decomposition temperature was determined based on the onset of the decomposition in TGA.

[2] = Rate onset temperature TRO in VTE source with QCM detector; settings: 15 K/min, less than 10−5 mbar
Experimental: The rate onset temperature (TRO) is determined by loading 100 mg compound into a VTE source. As VTE source a point source for organic materials may be used as supplied by Kurt J. Lesker Company (www.lesker.com) or CreaPhys GmbH (http://www.creaphys.com). The VTE source is heated at a constant rate of 15 K/min at a pressure of less than 10−5 mbar and the temperature inside the source measured with a thermocouple. Evaporation of the compound is detected with a QCM detector which detects deposition of the compound on the quartz crystal of the detector. The deposition rate on the quartz crystal is measured in Angstrom per second. To determine the rate onset temperature, the deposition rate is plotted against the VTE source temperature. The rate onset is the temperature at which noticeable deposition on the QCM detector occurs. For accurate results, the VTE source is heated and cooled three time and only results from the second and third run are used to determine the rate onset temperature.
To achieve good control over the evaporation rate of an organic compound, the rate onset temperature may be in the range of 200 to 255° C. If the rate onset temperature is below 200° C. the evaporation may be too rapid and therefore difficult to control. If the rate onset temperature is above 255° C. the evaporation rate may be too low which may result in low tact time and decomposition of the organic compound in VTE source may occur due to prolonged exposure to elevated temperatures.
The rate onset temperature is an indirect measure of the volatility of a compound. The higher the rate onset temperature the lower is the volatility of a compound.

[3] = Sublimation temperature Tsubl in sublimation apparatus; settings: 10−5 mbar
Excerpt: Under nitrogen in a glovebox, 0.5 to 5 g compound are loaded into the evaporation source of a sublimation apparatus. The sublimation apparatus consist of an inner glass tube consisting of bulbs with a diameter of 3 cm which are placed inside a glass tube with a diameter of 3.5 cm. The sublimation apparatus is placed inside a tube oven (Creaphys DSU 05/2.1). The sublimation apparatus is evacuated via a membrane pump (Pfeiffer Vacuum MVP 055-3C) and a turbo pump (Pfeiffer Vacuum THM071 YP). The pressure is measured between the sublimation apparatus and the turbo pump using a pressure gauge (Pfeiffer Vacuum PKR 251). When the pressure has been reduced to 10−5 mbar, the temperature is increased in increments of 10 to 30 K till the compound starts to be deposited in the harvesting zone of the sublimation apparatus. The temperature is further increased in increments of 10 to 30 K till a sublimation rate is achieved where the compound in the source is visibly depleted over 30 min to 1 hour and a substantial amount of compound has accumulated in the harvesting zone. The sublimation temperature, also named Tsubl, is the temperature inside the sublimation apparatus at which the compound is deposited in the harvesting zone at a visible rate and is measured in degree Celsius.

[4] = Solubility in benzonitrile

CC(=O)C=C(C)[O-].CC(=O)C=C(C)[O-].[Cu+2] [CC-1, Cu(acac)2]
Tdec [1]: >280 °C
Rate onset temperature TRO [2]: <100 °C
Sublimation temperature Tsubl [3]: 110-120 °C

CC(=O)/C=C(\[O-])C(F)(F)F.CC(=O)/C=C(\[O-])C(F)(F)F.[Cu+2] [CC-2, Cu(tfac)2]
Tdec [1]: >185 °C
Rate onset temperature TRO [2]: <100 °C
Sublimation temperature Tsubl [3]: 95-100 °C

CC(=O)C=C([O-])C(F)(F)F.CC(=O)C=C([O-])C(F)(F)F.CC(=O)C=C([O-])C(F)(F)F.[Bi+3] [CC-3, Bi(tfac)3]
Tdec [1]: >100 °C
Rate onset temperature TRO [2]: <100 °C
Sublimation temperature Tsubl [3]: decomposition

O=C(C=C([O-])C(F)(F)F)C(F)(F)F.O=C(C=C([O-])C(F)(F)F)C(F)(F)F.O=C(C=C([O-])C(F)(F)F)C(F)(F)F.[Bi+3] [CC-4, Bi(hfac)3]
Rate onset temperature TRO [2]: <100 °C
Sublimation temperature Tsubl [3]: decomposition

CC(C)(C)C(=O)C=C([O-])C(F)(F)C(F)(F)C(F)(F)F.CC(C)(C)C(=O)C=C([O-])C(F)(F)C(F)(F)C(F)(F)F.CC(C)(C)C(=O)C=C([O-])C(F)(F)C(F)(F)C(F)(F)F.[Bi+3] [CC-5, Bi(fod)3]
Tdec [1]: >200 °C
Rate onset temperature TRO [2]: <100 °C
Sublimation temperature Tsubl [3]: 120 °C

CC(C)(C)/C([O-])=C/C(=O)C(F)(F)C(F)(F)C(F)(F)F.CC(C)(C)/C([O-])=C/C(=O)C(F)(F)C(F)(F)C(F)(F)F.CC(C)(C)/C([O-])=C/C(=O)C(F)(F)C(F)(F)C(F)(F)F.[La+3] [CC-6, La(fod)3]
Tdec [1]: >260 °C
Rate onset temperature TRO [2]: 101 °C
Sublimation temperature Tsubl [3]: 170 °C

N#C/C(C(=O)c1cc(C(F)(F)F)cc(C(F)(F)F)c1)=C(/[O][Cu][O]/C(=C(/C#N)C(=O)c1cc(C(F)(F)F)cc(C(F)(F)F)c1)c1cc(C(F)(F)F)cc(C(F)(F)F)c1)c1cc(C(F)(F)F)cc(C(F)(F)F)c1 [MC-1, bis(((Z)-1,3-bis(3,5-bis(trifluoromethyl)phenyl)-2-cyano-3-oxoprop-1-en-1-yl)oxy)copper]
Tdec [1]: >319 °C
Rate onset temperature TRO [2]: 204 °C
Sublimation temperature Tsubl [3]: 261 °C

N#C/C(C(=O)C(F)(F)C(F)(F)F)=C(/[O][Cu][O]/C(=C(/C#N)C(=O)C(F)(F)C(F)(F)F)c1ccc(-c2cc(C(F)(F)F)cc(C(F)(F)F)c2)cc1)c1ccc(-c2cc(C(F)(F)F)cc(C(F)(F)F)c2)cc1 [MC-2, bis(((Z)-1-(3′,5′-bis(trifluoromethyl)-[1,1′-biphenyl]-4-yl)-2-cyano-4,4,5,5,5-pentafluoro-3-oxopent-1-en-1-yl)oxy)copper]
Tdec [1]: >330 °C
Solubility in benzonitrile ([4]; at 20° C.): >10 mg/mL
Sublimation temperature Tsubl [3]: decomposition

C/C(C(=O)c1ccnc(C(F)(F)F)c1)=C(/[O][Cu][O]/C(=C(/C)C(=O)c1ccnc(C(F)(F)F)c1)c1ccnc(C(F)(F)F)c1)c1ccnc(C(F)(F)F)c1 [MC-3, bis(((Z)-2-methyl-3-oxo-1,3-bis(2-(trifluoromethyl)pyridin-4-yl)prop-1-en-1-yl)oxy)copper]
Tdec [1]: >300 °C
Solubility in benzonitrile ([4]; at 60° C. (footnote 2)): 10 mg/ml^2)
Sublimation temperature Tsubl [3]: decomposition
